# Test results reported in PMC7782499, “Progerinin, an optimized progerin-lamin A binding inhibitor, ameliorates premature senescence phenotypes of Hutchinson-Gilford progeria syndrome” (Communications Biology, 2021).
# Tested on: Beagle dogs
# Assay: Maximum tolerated dose study in Beagle dogs, escalated-dose oral administration
# Assay type: in vivo
# Set-up: HGB: unit not given here
# Details: for A/G / ALB / ALP / ALT / AST / BASO / BUN / CHO / CRE / EOS / GLU / HCT / HGB / K+ / LYM / MCH / MCHC / MCV / MONO / NEU / Na+ / PLT / PRO / RBC / Reti / T-BIL / TG / WBC: ~24 h post dose
# Source text: The protocol and procedures involving the care and use of animals in this study was reviewed and approved by IACUC of QuBEST BIO prior to conduct (Approval no.: QBSIACUC-A18142). During the study, the care and use of animals will be conducted in accordance with all applicable guidelines of Animal Welfare Act. Non-naive one male and one female Beagle dogs (~16–24 months old, original supplier: ORIENTBIO Co., Ltd, Korea) were selected from the stock colony and assigned for the study. The route of administration was the oral (by gavage) route, which is the anticipated clinical route of exposure. Test article formulations were administered once via oral gavage. The day of 1st dosing was designated as Day 1. Each dose was administered via a syringe attached with 12-french feeding tube. A dose volume of 5 ml/kg was used and individual dose volumes were based on the most recent body weight. Each dose was followed by a distilled water of 5 ml. Each animal was observed twice daily (a.m. and p.m.) for mortality and moribundity; findings were recorded as they were observed. Cage side observations were made for each animal once daily; abnormal findings were recorded. […] Body weights were measured prior to each dosing. […] Prior to dosing and ~24 h post each dose, blood was collected as the same method and frequency with hematology analysis using no anticoagulant and then serum was separated by centrifugation and stored at freezer until analyze (AU 400, Olympus, Japan; […] 744 Na^+/K^+/[…] Analyzer, SIEMENS, Germany). In terminal procedures, all surviving animals were returned to the stock colony without necropsy. Toxicity studies were performed by QuBEST BIO Co., Ltd (Yongin, Korea).
# The objective of this study was to determine the maximum tolerated dose (MTD) of SLC-D011 following dose escalation by oral gavage to Beagle dogs.
# The study group was detailed in Text Table 1.
# Text Table 1. Study Group
# Dose Level Dose Conc. No. of Animals†
# Group Treatment (mg/kg) (mg/mL)
# †: Animals were re-used for each dose with at least 4-day wash-out period.
# The following parameters were evaluated in this study: mortality, clinical signs, body weights and clinical pathology parameters (hematology and serum biochemistry).
# Mortality and Clinical Observations
# All animals survived until end of the study. Test article-related clinical observations were limited to oily soft stool in the 100 mg/kg/day group animals and vomitus (frothy) and soft sto ol in the 400 […]
# Clinical Pathology Parameters (Hematology and Serum Chemistry) […]
# the 100 and 400 mg/kg group animals on approximately 24 hours post each dose, compared to pre […]
# Based on the results of this study, the maximum tolerated dose (MTD) of SLC-D011 was considered to […]
# Test article formulations were administered once via oral gavage. The day of 1st dosing was designated […]
# Each dose was administered via a syringe attached with 12-french feeding tube. A dose volume of 5 mL/kg was used and individual dose volumes were based on the most recent body weight. Each dose was followed by a distilled water of 5 mL. […]
# Each animal was observed twice daily (a.m. and p.m.) for mortality and moribundity; findings were recorded as they were observed. Cage side observations were made for each animal once daily; abnormal findings were recorded. Detailed observations were made for each animal once prior to treatment; abnormal findings (ranked/graded, if appropriate) or an indication the animal appears […]
# Body weights were measured prior to each dosing. […]
# Prior to each dosing and approximately 24 hours post each dose, blood samples for hematology examination were collected from the via cephalic vein into tubes with K2EDTA anticoagulant and […]
# Parameters Unit Measurement Method
# ⓐ RBC (Red blood cell count) 106/μL Electric Impedance […]
# ⓒ HGB (Hemoglobin conc.) g/dL Cyanmethemoglobin […]
compound,measurement,setting,value
CC1(C)Oc2cc3oc(=O)ccc3cc2C[C@@H]1OC/C=C/c1ccccc1 [SLC-D011],Body weights,100 mg/kg/day group animals by Day 4,lower body weights were temporarily noted
same,Hematology and serum chemistry parameters (in words),"100 and 400 mg/kg, ~24 hours post each dose vs pre dose",no toxicologically significant changes
same,A/G,"female F1, 100 mg/kg",0.72
same,ALB,"female F1, 100 mg/kg",2.62 g/dL
same,ALP,"female F1, 100 mg/kg",106.7 U/L
same,ALT,"female F1, 100 mg/kg",34.3 U/L
same,AST,"female F1, 100 mg/kg",41.7 U/L
same,BASO,"female F1, 100 mg/kg",0.6%
same,BUN,"female F1, 100 mg/kg",17.7 mg/dL
same,CHO,"female F1, 100 mg/kg",189.4 mg/dL
same,CRE,"female F1, 100 mg/kg",0.82 mg/dL
same,EOS,"female F1, 100 mg/kg",1.2%
same,GLU,"female F1, 100 mg/kg",96.4 mg/dL
same,HCT,"female F1, 100 mg/kg",47.8%
same,HGB,"female F1, 100 mg/kg",15.6
same,K+,"female F1, 100 mg/kg",4.5 mmol/L
same,LYM,"female F1, 100 mg/kg",39.9%
same,MCH,"female F1, 100 mg/kg",22.5 pg
same,MCHC,"female F1, 100 mg/kg",32.6 g/dL
same,MCV,"female F1, 100 mg/kg",68.9 fL
same,MONO,"female F1, 100 mg/kg",5.6%
same,NEU,"female F1, 100 mg/kg",52.3%
same,Na+,"female F1, 100 mg/kg",141 mmol/L
same,PLT,"female F1, 100 mg/kg",357 K/uL
same,PRO,"female F1, 100 mg/kg",6.27 g/dL
same,RBC,"female F1, 100 mg/kg",6.93 M/uL
same,Reti,"female F1, 100 mg/kg",0.61%
same,T-BIL,"female F1, 100 mg/kg",0.18 mg/dL
same,TG,"female F1, 100 mg/kg",21.3 mg/dL
same,WBC,"female F1, 100 mg/kg",7.80 K/uL
same,A/G,"female F1, 400 mg/kg",0.78
same,ALB,"female F1, 400 mg/kg",2.53 g/dL
same,ALP,"female F1, 400 mg/kg",174.7 U/L
same,ALT,"female F1, 400 mg/kg",39.1 U/L
same,AST,"female F1, 400 mg/kg",34.5 U/L
same,BASO,"female F1, 400 mg/kg",0.8%
same,BUN,"female F1, 400 mg/kg",12.08 mg/dL
same,CHO,"female F1, 400 mg/kg",175.1 mg/dL
same,CRE,"female F1, 400 mg/kg",0.85 mg/dL
same,EOS,"female F1, 400 mg/kg",1.4%
same,GLU,"female F1, 400 mg/kg",104.39 mg/dL
same,HCT,"female F1, 400 mg/kg",50.8%
same,HGB,"female F1, 400 mg/kg",15.7
same,K+,"female F1, 400 mg/kg",4.9 mmol/L
same,LYM,"female F1, 400 mg/kg",31.2%
same,MCH,"female F1, 400 mg/kg",22.2 pg
same,MCHC,"female F1, 400 mg/kg",30.9 g/dL
same,MCV,"female F1, 400 mg/kg",71.7 fL
same,MONO,"female F1, 400 mg/kg",6.5%
same,NEU,"female F1, 400 mg/kg",59.6%
same,Na+,"female F1, 400 mg/kg",143 mmol/L
same,PLT,"female F1, 400 mg/kg",378 K/uL
same,PRO,"female F1, 400 mg/kg",5.76 g/dL
same,RBC,"female F1, 400 mg/kg",7.08 M/uL
same,Reti,"female F1, 400 mg/kg",0.95%
same,T-BIL,"female F1, 400 mg/kg",0.15 mg/dL
same,TG,"female F1, 400 mg/kg",29.3 mg/dL
same,WBC,"female F1, 400 mg/kg",10.99 K/uL
same,Mortality,"female dog, 100 mg/kg",0/1
same,Clinical Observations Day 1,"female dog, 100 mg/kg, about 7 hours post dose",Soft stool (Oily)
same,Mortality,"female dog, 400 mg/kg",0/1
same,Clinical Observations Day 1,"female dog, 400 mg/kg, about 6 hours post dose",Black soft stool
same,A/G,"male M1, 100 mg/kg",0.58
same,ALB,"male M1, 100 mg/kg",2.41 g/dL
same,ALP,"male M1, 100 mg/kg",83.4 U/L
same,ALT,"male M1, 100 mg/kg",43.1 U/L
same,AST,"male M1, 100 mg/kg",28 U/L
same,BASO,"male M1, 100 mg/kg",0.2%
same,BUN,"male M1, 100 mg/kg",16.83 mg/dL
same,CHO,"male M1, 100 mg/kg",161 mg/dL
same,CRE,"male M1, 100 mg/kg",0.7 mg/dL
same,EOS,"male M1, 100 mg/kg",4.3%
same,HCT,"male M1, 100 mg/kg",46.8%
same,HGB,"male M1, 100 mg/kg",15.4
same,K+,"male M1, 100 mg/kg",4.8 mmol/L
same,LYM,"male M1, 100 mg/kg",32.4%
same,MCH,"male M1, 100 mg/kg",23.0 pg
same,MCHC,"male M1, 100 mg/kg",33.0 g/dL
same,MCV,"male M1, 100 mg/kg",69.9 fL
same,MONO,"male M1, 100 mg/kg",7.1%
same,NEU,"male M1, 100 mg/kg",55.7%
same,Na+,"male M1, 100 mg/kg",144 mmol/L
same,PLT,"male M1, 100 mg/kg",354 K/uL
same,RBC,"male M1, 100 mg/kg",6.69 M/uL
same,Reti,"male M1, 100 mg/kg",0.15%
same,T-BIL,"male M1, 100 mg/kg",0.1 mg/dL
same,TG,"male M1, 100 mg/kg",28.9 mg/dL
same,WBC,"male M1, 100 mg/kg",8.83 K/uL
same,A/G,"male M1, 400 mg/kg",0.59
same,ALB,"male M1, 400 mg/kg",2.37 g/dL
same,ALP,"male M1, 400 mg/kg",94.3 U/L
same,ALT,"male M1, 400 mg/kg",74.9 U/L
same,AST,"male M1, 400 mg/kg",27.2 U/L
same,BASO,"male M1, 400 mg/kg",0.6%
same,BUN,"male M1, 400 mg/kg",16.17 mg/dL
same,CHO,"male M1, 400 mg/kg",142 mg/dL
same,CRE,"male M1, 400 mg/kg",0.79 mg/dL
same,EOS,"male M1, 400 mg/kg",4.4%
same,HCT,"male M1, 400 mg/kg",50.5%
same,HGB,"male M1, 400 mg/kg",15.2
same,K+,"male M1, 400 mg/kg",5.1 mmol/L
same,LYM,"male M1, 400 mg/kg",25.1%
same,MCH,"male M1, 400 mg/kg",22.1 pg
same,MCHC,"male M1, 400 mg/kg",30.1 g/dL
same,MCV,"male M1, 400 mg/kg",73.2 fL
same,MONO,"male M1, 400 mg/kg",7.9%
same,NEU,"male M1, 400 mg/kg",61.7%
same,Na+,"male M1, 400 mg/kg",146 mmol/L
same,PLT,"male M1, 400 mg/kg",347 K/uL
same,RBC,"male M1, 400 mg/kg",6.90 M/uL
same,Reti,"male M1, 400 mg/kg",0.34%
same,T-BIL,"male M1, 400 mg/kg",0.12 mg/dL
same,TG,"male M1, 400 mg/kg",34.4 mg/dL
same,WBC,"male M1, 400 mg/kg",9.43 K/uL
same,Mortality,"male dog, 100 mg/kg",0/1
same,Clinical Observations Day 1,"male dog, 100 mg/kg, about 7 hours post dose",Brown soft stool (Oily)
same,Mortality,"male dog, 400 mg/kg",0/1
same,Clinical Observations Day 1,"male dog, 400 mg/kg, about 1 hours post dose",Vomitius (Frothy)
same,Tolerability,single oral administration at 100 and 400 mg/kg,well tolerated
